From US11000033B2, “Ketone or oxime compound, and herbicide” (NISSAN CHEMICAL CORPORATION, priority 2014, dated 2021)

Legend:
Format in all cases: in vivo
[1] = test system: rapeseed; assay: Test Example 5: effect on crop by foliage application, plastic box (symbol g); conditions: 320 g/ha, 3 weeks after application
Summary of the method: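 Foliage-application test plants come from spot sowing in sterilized diluvial soil under a soil layer of about 1.5 cm, grown at 25° C. to 30° C. in a greenhouse.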

[2] = test system: soybean; assay: Test Example 4: effect on crop by soil treatment (symbol d); conditions: for d: soybean, effect grade on crop: 320 g/ha; for d (soybean) effect on crop grade: application herbicide amount 320 g/ha
Summary of the method: (§1)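 Greenhouse culture at 25° C. to 30° C. followed sowing of seed in spots on sterilized diluvial soil with a soil cover close to 1.5 cm thick.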

[3] = test system: Chenopodium album; assay: Test Example 5: herbicidal effect by foliage application, plastic box (symbol O); conditions: 320 g/ha, 3 weeks after application
Summary of the method: (§2)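 Sowing in sterilized diluvial soil, 14 days' greenhouse growth at 25° C. to 30° C., then uniform small-sprayer foliar application of aqueous emulsion dilution; plants scored three weeks afterwards.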

[4] = test system: Scirpus juncoides; assay: Test Example 2: herbicidal activity, application during weed generation in submerged conditions (symbol B); conditions: Table 23; application herbicide amount 320 g/ha; grade 0-5 by criteria of Test Example 1
Summary of the method: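 Compound was applied as a water-diluted emulsion into the standing water of flooded pots (4 cm) once co-sown weeds reached one to two leaves. Greenhouse temperature was 25° C. to 30° C., soil was alluvial, and each species was rated visually after 3 weeks.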

[5] = test system: Echinochloa crus-galli var. crus-galli; assay: Test Example 5: herbicidal effect by foliage application, plastic box (symbol H); conditions: 320 g/ha, 3 weeks after application
Summary of the method: as §2

[6] = test system: beet; assay: Test Example 4: effect on crop by soil treatment (symbol f); conditions: for f: beet, effect grade on crop: 320 g/ha; for f (beet) effect on crop grade: application herbicide amount 320 g/ha
Summary of the method: as §1

[7] = test system: Scirpus juncoides; assay: Test Example 1: herbicidal activity, application before weed generation in submerged conditions (symbol B); conditions: application herbicide amount 320 g/ha
Summary of the method: (§3)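 Ratings (5: ≥90%, near complete withering; 4: 70–<90%; 3: 40–<70%; 2: 20–<40%; 1: 5–<20%; 0: ≤5%) were assigned 3 weeks after the diluted emulsion was applied to the water surface of freshly sown, submerged pots.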

[8] = test system: Monochoria vaginalis; assay: Test Example 1: herbicidal activity, application before weed generation in submerged conditions (symbol C); conditions: application herbicide amount 320 g/ha
Summary of the method: as §3

[9] = test system: transplanted rice plant; assay: Test Example 1: effect on crop, application before weed generation in submerged conditions (symbol a); conditions: application herbicide amount 320 g/ha
Summary of the method: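 Alluvial soil pots flooded to 4 cm water, sown with Echinochloa oryzacola, Scirpus juncoides and Monochoria vaginalis, then transplanted with 2.5 leaf stage rice seedlings; pre-emergence application. Greenhouse 25° C. to 30° C.; scored 0–5 by herbicidal ratio 3 weeks after application.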

[10] = test system: Leptochloa chinensis; assay: Test Example 3: herbicidal effect by foliage application, Wagner pot (symbol D); conditions: application herbicide amount 320 g/ha
Summary of the method: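 In a shallow-flooded alluvial soil system held at 25–30 °C, plants including rice grew for 14 days and were then sprayed over the foliage with emulsion diluted to a fixed herbicide amount. Visual rating followed at 3 weeks.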

Compound | g: rapeseed, effect on crop (criteria 0-5) [1] | d: soybean, effect grade on crop [2] | O: Chenopodium album, herbicidal effect (criteria 0-5) [3] | Herbicidal effect grade, B: Scirpus juncoides [4] | H: Echinochloa crus-galli var. crus-galli, herbicidal effect (criteria 0-5) [5] | f: beet, effect grade on crop [6] | Herbicidal effect grade, B: Scirpus juncoides [7] | Herbicidal effect grade, C: Monochoria vaginalis [8] | Effect grade on crop, a: transplanted rice plant [9] | herbicidal effect on D (Leptochloa chinensis), grade 0-5 [10] | g: rapeseed, effect on crop grade [1] | d (soybean) effect on crop grade [2] | O: Chenopodium album, herbicidal effect grade [3] | H: Echinochloa crus-galli var. crus-galli, herbicidal effect grade [5] | f (beet) effect on crop grade [6]
COCC(=O)OC1=C(c2c(C)cc(C)cc2C)C(=O)C(CC(C)=NOC)C1 (centres unmarked) [1-093] | 4 (Herbicidal ratio of 70% or higher and lower than 90%) | 0 (Herbicidal ratio of 5% or lower (almost no effect)) | 0 (Herbicidal ratio of 5% or lower (almost no effect)) | 5 (Herbicidal ratio of 90% or more (almost completely withered)) | 5 (Herbicidal ratio of 90% or more (almost completely withered)) | 0 (Herbicidal ratio of 5% or lower (almost no effect)) | 5 (Herbicidal ratio of 90% or more (almost completely withered)) | 2 (Herbicidal ratio of 20% or higher and lower than 40%) | 5 (Herbicidal ratio of 90% or more (almost completely withered)) | 5 (Herbicidal ratio of 90% or more (almost completely withered)) | – | – | – | – | –
CC(CC1CC(O)=C(c2c(C)cc(C)cc2C)C1=O)=NOCC(C)O (centres unmarked) [1-027] | – | – | – | 3 (Herbicidal ratio of 40% or higher and lower than 70%) | – | – | 3 (Herbicidal ratio of 40% or higher and lower than 70%) | 3 (Herbicidal ratio of 40% or higher and lower than 70%) | 4 (Herbicidal ratio of 70% or higher and lower than 90%) | 5 (Herbicidal ratio of 90% or more (almost completely withered)) | 4 (Herbicidal ratio of 70% or higher and lower than 90%) | 0 (Herbicidal ratio of 5% or lower (almost no effect)) | 1 (Herbicidal ratio of 5% or higher and lower than 20%) | 5 (Herbicidal ratio of 90% or more (almost completely withered)) | 0 (Herbicidal ratio of 5% or lower (almost no effect))
CON=C(C)CC1CC(OC(=O)C2(C)CC2(Cl)Cl)=C(c2c(C)cc(C)cc2C)C1=O (centres unmarked) [1-036] | – | – | – | 4 (Herbicidal ratio of 70% or higher and lower than 90%) | – | – | 4 (Herbicidal ratio of 70% or higher and lower than 90%) | 1 (Herbicidal ratio of 5% or higher and lower than 20%) | 5 (Herbicidal ratio of 90% or more (almost completely withered)) | 5 (Herbicidal ratio of 90% or more (almost completely withered)) | 4 (Herbicidal ratio of 70% or higher and lower than 90%) | 0 (Herbicidal ratio of 5% or lower (almost no effect)) | 2 (Herbicidal ratio of 20% or higher and lower than 40%) | 5 (Herbicidal ratio of 90% or more (almost completely withered)) | 3 (Herbicidal ratio of 40% or higher and lower than 70%)
CC#CC(=O)OC1=C(c2c(C)cc(C)cc2C)C(=O)C(CC(C)=NOC)C1 (centres unmarked) [1-095] | 4 (Herbicidal ratio of 70% or higher and lower than 90%) | 0 (Herbicidal ratio of 5% or lower (almost no effect)) | 0 (Herbicidal ratio of 5% or lower (almost no effect)) | 4 (Herbicidal ratio of 70% or higher and lower than 90%) | 5 (Herbicidal ratio of 90% or more (almost completely withered)) | 0 (Herbicidal ratio of 5% or lower (almost no effect)) | 5 (Herbicidal ratio of 90% or more (almost completely withered)) | 2 (Herbicidal ratio of 20% or higher and lower than 40%) | 5 (Herbicidal ratio of 90% or more (almost completely withered)) | 5 (Herbicidal ratio of 90% or more (almost completely withered)) | – | – | – | – | –
CON=C(C)CC1CC(OC(=O)COc2ccc(OC)cc2)=C(c2c(C)cc(C)cc2C)C1=O (centres unmarked) [1-069] | – | – | – | 4 (Herbicidal ratio of 70% or higher and lower than 90%) | – | – | 4 (Herbicidal ratio of 70% or higher and lower than 90%) | 2 (Herbicidal ratio of 20% or higher and lower than 40%) | 5 (Herbicidal ratio of 90% or more (almost completely withered)) | 5 (Herbicidal ratio of 90% or more (almost completely withered)) | 4 (Herbicidal ratio of 70% or higher and lower than 90%) | 0 (Herbicidal ratio of 5% or lower (almost no effect)) | 2 (Herbicidal ratio of 20% or higher and lower than 40%) | 5 (Herbicidal ratio of 90% or more (almost completely withered)) | 0 (Herbicidal ratio of 5% or lower (almost no effect))
CCCC(CC1CC(O)=C(c2c(C)cc(C)cc2C)C1=O)=NOC (centres unmarked) [1-062] | – | – | – | 0 (Herbicidal ratio of 5% or lower (almost no effect)) | – | – | 2 (Herbicidal ratio of 20% or higher and lower than 40%) | 1 (Herbicidal ratio of 5% or higher and lower than 20%) | 5 (Herbicidal ratio of 90% or more (almost completely withered)) | 3 (Herbicidal ratio of 40% or higher and lower than 70%) | 3 (Herbicidal ratio of 40% or higher and lower than 70%) | 0 (Herbicidal ratio of 5% or lower (almost no effect)) | 0 (Herbicidal ratio of 5% or lower (almost no effect)) | 4 (Herbicidal ratio of 70% or higher and lower than 90%) | 0 (Herbicidal ratio of 5% or lower (almost no effect))
CC(CC1CC(O)=C(c2c(C)cc(C)cc2C)C1=O)=NOCC=CCl (centres unmarked) [1-056] | – | – | – | 5 (Herbicidal ratio of 90% or more (almost completely withered)) | – | – | 5 (Herbicidal ratio of 90% or more (almost completely withered)) | 4 (Herbicidal ratio of 70% or higher and lower than 90%) | 5 (Herbicidal ratio of 90% or more (almost completely withered)) | 5 (Herbicidal ratio of 90% or more (almost completely withered)) | 4 (Herbicidal ratio of 70% or higher and lower than 90%) | 0 (Herbicidal ratio of 5% or lower (almost no effect)) | 1 (Herbicidal ratio of 5% or higher and lower than 20%) | 5 (Herbicidal ratio of 90% or more (almost completely withered)) | 0 (Herbicidal ratio of 5% or lower (almost no effect))
CON=C(C)CC1CC(OC(=O)COCC(F)(F)F)=C(c2c(C)cc(C)cc2C)C1=O (centres unmarked) [1-092] | 4 (Herbicidal ratio of 70% or higher and lower than 90%) | 0 (Herbicidal ratio of 5% or lower (almost no effect)) | 0 (Herbicidal ratio of 5% or lower (almost no effect)) | 4 (Herbicidal ratio of 70% or higher and lower than 90%) | 5 (Herbicidal ratio of 90% or more (almost completely withered)) | 0 (Herbicidal ratio of 5% or lower (almost no effect)) | 5 (Herbicidal ratio of 90% or more (almost completely withered)) | 0 (Herbicidal ratio of 5% or lower (almost no effect)) | 5 (Herbicidal ratio of 90% or more (almost completely withered)) | 5 (Herbicidal ratio of 90% or more (almost completely withered)) | – | – | – | – | –
